One experiment has as its target Human IDO1 (Homo sapiens (Human), UniProt P14902). Nature of the experiment: IDO Kynurenine Assay with Human IDO1/HEK293 Cells. It counts as cell-based. The settings on record: HEK293 cells with human IDO1; read-out: HEK human IDO-1 (IC50). On the procedure: IDO Kynurenine Assay with Human IDO1/HEK293 Cells
Human IDO1/HEK293 cells were seeded at 10,000 cells per 50 uL per well with RPMI/phenol red free media contains 10% FBS in a 384-well black wall clear bottom tissue culture plate (Matrix Technologies LLC) 125 nL of certain concentration of compound was then added to each well using ECHO liquid handling systems. The cells were incubated for 20 hours in 37° C. incubator with 5% CO2.
The compound treatments were stopped by adding Trichloroacetic Acid (Sigma-Aldrich) to a final concentration at 0.2%. The cell plate was further incubated at 50° C. for 30 minute. The equal volume supernatant (20 uL) and 0.2% (w/v) Ehrlich reagent (4-dimethylaminobenzaldehyde, Sigma-Aldrich) in glacial acetic acid were mixed in a new clear bottom 384-well plate. This plate was then incubated at room temperature for 30 minute. The absorbance at 490 nm was measured on Envision plate reader.

Experiment [1] has as its target T1, IDO (Homo sapiens (Human), UniProt P14902). As to the kind of experiment: LLE_IDO_ABS_DR (IDO assay, method not described).
The target of experiment [2] is T1, IDO. As to the kind of experiment: Kynurenine assay in IFN-γ-stimulated Hela cells. The experiment is classed as cell-based. As to conditions: 20 h, read-out: Hela Kyurenine (IC50). Put shortly: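 Hela cells adhered 5-6 h, then received inhibitor (top dose 30 μM, 3-fold dilutions to 1.5 nM) plus 100 ng/mL human IFN-γ to induce IDO, 20 h at 37° C. TCA added, 30 min at 50° C hydrolyses N-formylkynurenine to kynurenine. Supernatant mixed with Ehrlich reagent, 10 min RT, absorbance 490 nm.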

T1 sequence (P14902 whole entry): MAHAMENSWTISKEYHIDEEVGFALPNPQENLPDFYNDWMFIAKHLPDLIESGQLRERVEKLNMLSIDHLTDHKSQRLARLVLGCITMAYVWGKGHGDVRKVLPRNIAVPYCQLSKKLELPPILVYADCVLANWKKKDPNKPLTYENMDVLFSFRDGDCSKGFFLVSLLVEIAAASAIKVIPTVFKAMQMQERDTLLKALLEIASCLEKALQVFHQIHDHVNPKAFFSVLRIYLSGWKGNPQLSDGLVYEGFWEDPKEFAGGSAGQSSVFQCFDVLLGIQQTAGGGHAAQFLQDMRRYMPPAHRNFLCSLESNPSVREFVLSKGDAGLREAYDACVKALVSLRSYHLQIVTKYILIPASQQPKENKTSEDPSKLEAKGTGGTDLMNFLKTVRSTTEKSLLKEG
Sequence of Human IDO1 (P14902 whole entry): as above

For the molecule `C=CC(c1ccccc1)c1cc(-c2ccccc2-c2nnn[nH]2)cc(NC(=O)Nc2ccc(C)cc2)c1OCCC` (racemic) [Example 8, 1-(5-(1-Phenylallyl)-4-propoxy-2′-(1H-tetrazol-5-yl)-[1,1′-biphenyl]-3-yl)-3-(p-tolyl)urea], the half-inhibitory concentration (IC50) at Human IDO1 worked out at 30 nM; on IDO [1], 10 nM.
Take `Cc1ccc(NC(=O)Nc2cc(-c3ccccc3C(=O)O)ccc2Oc2ccccc2C(C)(C)C)cc1` [Example 2, 4′-(2-tert-Butylphenoxy)-3′-(3-p-tolylureido)biphenyl-2-carboxylic acid]: the 50% inhibitory concentration (IC50) turned out to be 560 nM on Human IDO1, 60 nM on IDO [2] and 70 nM against IDO [1].
For the molecule `CCOc1ccc(-c2ccc(Oc3ccccc3C(C)(C)C)c(NC(=O)Nc3ccc(C)cc3)c2)cc1C(=O)O` [Example 5, 4′-(2-tert-Butylphenoxy)-4-ethoxy-3′-(3-p-tolylureido)biphenyl-3-carboxylic acid], the half-inhibitory concentration (IC50) turned out to be 1830 nM at Human IDO1, 120 nM at IDO [2] and 1010 nM at IDO [1].
`COc1ccc(-c2ccc(Oc3ccccc3C(C)(C)C)c(NC(=O)Nc3ccc(C)cc3)c2)cc1NS(=O)(=O)C(F)(F)F` [Example 7, N-(4′-(2-tert-Butylphenoxy)-4-methoxy-3′-(3-p-tolylureido)biphenyl-3-yl)-1,1,1-trifluoromethanesulfonamide]: the IC50 on Human IDO1 worked out at 750 nM; at IDO [2], 110 nM; against IDO [1] it was 320 nM.
Take `CCCOc1c(CCC)cc(-c2ccccc2-c2nnn[nH]2)cc1NC(=O)Nc1ccc(C)cc1` [Example 16, 1-(4-Propoxy-5-propyl-2′-(1H-tetrazol-5-yl)-[1,1′-biphenyl]-3-yl)-3-(p-tolyl)urea]: the IC50 on Human IDO1 and at IDO [1] was 30 nM in each case.
Take `C/C=C/Cc1cc(-c2ccccc2-c2nnn[nH]2)cc(NC(=O)Nc2ccc(C)cc2)c1OCCC` [Example 19, (E)-1-(5-(But-2-en-1-yl)-4-propoxy-2′-(1H-tetrazol-5-yl)-[1,1′-biphenyl]-3-yl)-3-(p-tolyl)urea]: the IC50 was determined as 30 nM at Human IDO1 and 20 nM against IDO [1].
Consider `CCCCc1cc(-c2ccccc2-c2nnn[nH]2)cc(NC(=O)Nc2ccc(C)cc2)c1OCCC` [Example 22, 1-(5-Butyl-4-propoxy-2′-(1H-tetrazol-5-yl)-[1,1′-biphenyl]-3-yl)-3-(p-tolyl)urea], for which the IC50 was 5.92 nM at Human IDO1 and 20 nM at IDO [1].
Turning to `CCCOc1c(/C=C/CC(F)(F)F)cc(-c2ccccc2-c2nnn[nH]2)cc1NC(=O)Nc1ccc(C)cc1` [Example 29, (E)-1-(4-Propoxy-2′-(1H-tetrazol-5-yl)-5-(4,4,4-trifluorobut-1-en-1-yl)-[1,1′-biphenyl]-3-yl)-3-(p-tolyl)urea], the 50% inhibitory concentration (IC50) at Human IDO1 and at IDO [1] was 30 nM in each case.
For the molecule `CCCOc1c(/C=C/C=C(F)F)cc(-c2ccccc2-c2nnn[nH]2)cc1NC(=O)Nc1ccc(C)cc1` [Example 30, (E)-1-(5-(4,4-Difluorobuta-1,3-dien-1-yl)-4-propoxy-2′-(1H-tetrazol-5-yl)-[1,1′-biphenyl]-3-yl)-3-(p-tolyl)urea], the IC50 was found to be 20 nM at Human IDO1 and 9.95 nM against IDO [1].
On the same counts, the results for `CCCOc1c(CCCC(F)(F)F)cc(-c2ccccc2-c2nnn[nH]2)cc1NC(=O)Nc1ccc(C)cc1` [Example 31, 1-(4-Propoxy-2′-(1H-tetrazol-5-yl)-5-(4,4,4-trifluorobutyl)-[1,1′-biphenyl]-3-yl)-3-(p-tolyl)urea] are 20 nM and 40 nM.
In the case of `CCCOc1c(C/C=C/C(F)(F)F)cc(-c2ccccc2-c2nnn[nH]2)cc1NC(=O)Nc1ccc(C)cc1` [Example 32, (E)-1-(4-Propoxy-2′-(1H-tetrazol-5-yl)-5-(4,4,4-trifluorobut-2-en-1-yl)-[1,1′-biphenyl]-3-yl)-3-(p-tolyl)urea], the half-maximal inhibitory concentration (IC50) at Human IDO1 came to 10 nM; on IDO [1] it was 9.47 nM.
As to `CCCOc1c(CCCc2ccccc2)cc(-c2ccccc2C(=O)O)cc1NC(=O)Nc1ccc(C)cc1` [Example 36, 3′-(3-Phenylpropyl)-4′-propoxy-5′-(3-p-tolylureido)biphenyl-2-carboxylic acid], the IC50 at Human IDO1 was 20 nM; against IDO [1] it was 30 nM.
In the case of `COc1ccc(-c2ccc(Oc3ccccc3C(C)(C)C)c(NC(=O)Nc3ccccc3Cl)c2)cc1C(=O)O` [Example 42, 4′-(2-tert-butylphenoxy)-3′-(3-(2-chlorophenyl)ureido)-4-methoxybiphenyl-3-carboxylic acid], the IC50 was found to be 620 nM on Human IDO1, 90 nM at IDO [2] and 340 nM against IDO [1].
With `Cc1ccccc1NC(=O)Nc1cc(-c2cccc(C(=O)O)c2)ccc1Oc1ccccc1C(C)(C)C` [Example 224, 4′-(2-tert-butylphenoxy)-3′-(3-o-tolylureido) biphenyl-3-carboxylic acid], the IC50 on Human IDO1 was 7500 nM; at IDO [2] it was 1020 nM.
`Cc1ccc(NC(=O)Nc2cc(-c3cccc(C(=O)O)c3)ccc2Oc2ccccc2C(C)(C)C)cc1` [Example 226, 4′-(2-tert-butylphenoxy)-3′-(3-p-tolylureido) biphenyl-3-carboxylic acid]: the results for the half-inhibitory concentration (IC50) at Human IDO1 and on IDO [2] were 9190 nM and 790 nM, respectively.
Take `COc1cccc(NC(=O)Nc2cc(-c3cccc(C(=O)O)c3)ccc2Oc2ccccc2C(C)(C)C)c1` [Example 229, 4′-(2-tert-butylphenoxy)-3′-(3-(3-methoxyphenyl)ureido)biphenyl-3-carboxylic acid]: the 50% inhibitory concentration (IC50) at Human IDO1 worked out at 7500 nM; at IDO [2], 1890 nM.
As to `COc1ccc(NC(=O)Nc2cc(-c3cccc(C(=O)O)c3)ccc2Oc2ccccc2C(C)(C)C)cc1` [Example 230, 4′-(2-tert-butylphenoxy)-3′-(3-(4-methoxyphenyl)ureido)biphenyl-3-carboxylic acid], the half-maximal inhibitory concentration (IC50) at Human IDO1 is 7500 nM; on IDO [2], 1810 nM.
Consider `CC(C)(C)c1ccccc1Oc1ccc(-c2cccc(C(=O)O)c2)cc1NC(=O)Nc1ccc(Cl)cc1` [Example 232, 4′-(2-tert-butylphenoxy)-3′-(3-(4-chlorophenyl)ureido)biphenyl-3-carboxylic acid], for which the IC50 on Human IDO1 stood at 7500 nM; on IDO [2], 1800 nM.
Consider `CC(C)(C)c1ccccc1Oc1ccc(-c2cccc(C(=O)O)c2)cc1NC(=O)Nc1ccc(Br)cc1` [Example 233, 3′-(3-(4-bromophenyl)ureido)-4′-(2-tert-butylphenoxy) biphenyl-3-carboxylic acid], for which the IC50 on Human IDO1 came out at 7500 nM; on IDO [2] it was 2890 nM.
Turning to `CCCOc1c(Br)cc(-c2ccccc2-c2nnn[nH]2)cc1NC(=O)Nc1ccc(C)cc1` [Example 283], the half-inhibitory concentration (IC50) at Human IDO1 turned out to be 60 nM; against IDO [1], 30 nM.
Consider `CC/C=C/Cc1cc(-c2ccccc2-c2nnn[nH]2)cc(NC(=O)Nc2ccccc2F)c1OCCC` [Example 284], for which the half-inhibitory concentration (IC50) at Human IDO1 was 6.49 nM; at IDO [1], 5.56 nM.
Take `CCCC(CCC)Oc1c(Br)cc(-c2ccccc2-c2nnn[nH]2)cc1NC(=O)Nc1ccccc1F` [Example 287]: the values for the IC50 at Human IDO1 and at IDO [1] were 4.49 nM and 3.25 nM, respectively.
For `CCCCCc1cc(-c2ccccc2-c2nnn[nH]2)cc(NC(=O)Nc2ccccc2F)c1OCCC` [Example 289], the IC50 at Human IDO1 was determined as 50 nM; against IDO [1], 9.83 nM.
For the molecule `CCCOc1c(NC(=O)Nc2ccc(C)cc2)cc(-c2ccccc2-c2nnn[nH]2)cc1C(CC)c1ccccc1` (centres unmarked) [Example 298], the half-maximal inhibitory concentration (IC50) at Human IDO1 and at IDO [1] was 30 nM each time.
For `CCCC(Oc1ccc(-c2ccccc2-c2nnn[nH]2)cc1NC(=O)Nc1ccc(C)cc1)c1ccccc1Cl` (centres unmarked) [Example 313], the concentration for half-maximal inhibition (IC50) worked out at 610 nM on Human IDO1 and 90 nM against IDO [1].
The like results for `O=C(Nc1ccc(C2CC2)cc1)Nc1cc(-c2ccccc2-c2nnn[nH]2)cc(CC2CC2)c1OCCC(F)(F)F` [Example 316] were, in that order, 40 nM and 40 nM.
`O=C(Nc1ccc(OC(F)(F)F)cc1)Nc1cc(-c2ccccc2-c2nnn[nH]2)cc(CC2CC2)c1OCCC(F)(F)F` [Example 319]: the values for the IC50 on Human IDO1 and at IDO [1] were 90 nM and 50 nM, respectively.
`O=C(Nc1ccc(OC(F)(F)F)cc1)Nc1cc(-c2ccccc2-c2nnn[nH]2)cc(CC2CC2)c1OCC1CC1` [Example 321]: the half-inhibitory concentration (IC50) at Human IDO1 was determined as 30 nM; against IDO [1], 10 nM.
Take `Cc1cccc(NC(=O)Nc2cc(-c3ccccc3-c3nnn[nH]3)cc(CC3CC3)c2Oc2ccccc2)c1` [Example 323]: the IC50 came out at 60 nM at Human IDO1 and 40 nM against IDO [1].
As to `Cc1ccc(NC(=O)Nc2cc(-c3cc(Cl)cc(C(=O)O)c3)cnc2Oc2ccccc2C(C)(C)C)cc1` [Example 337], the concentration for half-maximal inhibition (IC50) at Human IDO1 came to 7500 nM; at IDO [2], 2260 nM.
For the molecule `Cc1ccc(NC(=O)Nc2cc(-c3cncc(C(=O)O)c3)cnc2Oc2ccccc2)cc1` [Example 339], the 50% inhibitory concentration (IC50) was 6180 nM at Human IDO1 and 2420 nM on IDO [2].
In the case of `CCCOc1c(NC(=O)Nc2ccc(C)cc2)cc(-c2ccccc2-c2nnn[nH]2)cc1C(CC)CCCc1ccccc1` (centres unmarked) [compound 297], the figures for the IC50 on Human IDO1 and against IDO [1] were 90 nM and 50 nM, respectively.

As a reminder, the IC50 is the point on the concentration scale where inhibition reaches its midpoint.
